According to US20250145606A1 (Arcus Biosciences, Inc., priority 2023, published 2025):
Marks after values point to notes of the source that are not given here.

Tests used:
[1] = test system: cynomolgus monkey hepatocytes; experiment: Bioactivation assessment in monkey hepatocytes; assay type: in vitro ADME; conditions: 5 μM, 4 hours
Method: (§1) Bioactivation Assessment Procedure
(§2) Pooled male Sprague Dawley rat (BioIVT), male beagle dog (BioIVT), male cynomolgus monkey (BioIVT), and a 50-donor pool of cryopreserved human hepatocytes (BioIVT) was thawed in pre-warmed 37° C. InVitroGro™ HT media (BioIVT), centrifuged, and resuspended in the InVitroGro™ HI media (BioIVT). The number of viable cells was determined by the Trypan blue exclusion method. The cells were diluted to a concentration of two million viable cells per milliliter (viability >80%) and seeded into round-bottom 96-well plates. The test articles were dissolved in DMSO and further diluted in 50% CH3CN and InVitroGro™ HI media with final concentrations of 0.05% DMSO and 0.5% CH3CN in the incubation mixture. Incubation was performed at a final concentration of one million cells per milliliter and 5 μM test compounds with continuous shaking at 1100 rpm in a 37° C., 5/95% CO2/air incubator with 100% relative humidity. After 4 hours, the samples were quenched by addition of 3 volumes of CH3CN, vortexed for 15 minutes, and centrifuged at 4200 rpm for 15 minutes at 10° C. (Sorvall Legend XTR centrifuge, Thermo Scientific, Langenselbold, Germany). 80 μL of the resulting supernatant was transferred into a new plate and mixed with 160 μL water followed by liquid chromatography-high resolution mass spectrometry (LC-HRMS) analysis.
(§3) Structural assignments of metabolites were determined through mass spectral analysis. The level of bioactivation was estimated based on the relative peak area of bioactivation products to all identified metabolites. The following equation was used: […]
(§4) Bioactivation products included glutathione conjugates, imine methides, quinones, diols, and other relevant metabolites.

[2] = target: CSF1R (Homo sapiens (Human), UniProt P07333); experiment: Inhibition of CSF1R kinase activity (HTRF KinEASE-TK); conditions: biochemical
Sequence of CSF1R (P07333 20-972): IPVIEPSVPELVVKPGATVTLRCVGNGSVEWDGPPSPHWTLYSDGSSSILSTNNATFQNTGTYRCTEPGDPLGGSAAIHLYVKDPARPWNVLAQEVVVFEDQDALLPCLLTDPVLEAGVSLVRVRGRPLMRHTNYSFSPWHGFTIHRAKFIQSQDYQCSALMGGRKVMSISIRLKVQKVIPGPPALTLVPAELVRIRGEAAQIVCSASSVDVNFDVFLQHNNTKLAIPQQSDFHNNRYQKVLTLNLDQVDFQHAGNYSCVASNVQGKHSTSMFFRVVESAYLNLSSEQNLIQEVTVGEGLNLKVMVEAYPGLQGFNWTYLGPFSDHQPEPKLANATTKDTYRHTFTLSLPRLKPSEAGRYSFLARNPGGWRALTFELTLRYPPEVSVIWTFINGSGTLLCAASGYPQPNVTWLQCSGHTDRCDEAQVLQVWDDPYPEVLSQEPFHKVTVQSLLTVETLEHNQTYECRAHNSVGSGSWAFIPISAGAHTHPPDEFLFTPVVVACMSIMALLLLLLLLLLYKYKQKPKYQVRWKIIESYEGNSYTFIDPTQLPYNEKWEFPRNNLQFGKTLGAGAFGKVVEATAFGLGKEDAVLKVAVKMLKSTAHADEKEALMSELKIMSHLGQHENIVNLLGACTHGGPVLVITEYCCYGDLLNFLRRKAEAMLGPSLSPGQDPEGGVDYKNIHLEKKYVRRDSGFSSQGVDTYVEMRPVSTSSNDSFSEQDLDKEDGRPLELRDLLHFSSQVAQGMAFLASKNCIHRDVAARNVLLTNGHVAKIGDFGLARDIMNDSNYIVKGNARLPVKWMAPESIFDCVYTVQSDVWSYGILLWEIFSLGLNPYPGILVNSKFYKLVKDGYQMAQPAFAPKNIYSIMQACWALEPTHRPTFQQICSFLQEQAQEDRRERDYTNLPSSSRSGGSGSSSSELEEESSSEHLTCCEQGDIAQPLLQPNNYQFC
In short: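 Human kinases were preincubated 1 h at rt with a 22-point 1:2 compound titration, then run 120 min at rt with biotinylated TK peptide and ATP (2× mix: c-Kit 16 μM, PDGFRα 1 μM, PDGFRβ 40 μM, CSF1R 20 μM). Phosphopeptide was read by HTRF TR-FRET (665/620 nm), and IC50s came from 4-parameter fits.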

[3] = test system: human hepatocytes; experiment: Bioactivation assessment in human hepatocytes; assay type: in vitro ADME; conditions: 5 μM, 4 hours
Method: as §1, §2, §3, §4

SMILES	IC50 ([2]; HTRF KinEASE-TK) [nM]	Percent of total metabolism via bioactivation, Monkey hepatocytes [1] [%]	IC50 [2] [nM]	Percent of total metabolism via bioactivation, Human hepatocytes [3]
Cc1ncc(C(=O)Nc2cc(C(=O)Nc3ccc(CC4CC4)cn3)c(F)cc2C)s1 [Example 5, N-[5-[[5-(Cyclopropylmethyl)pyridin-2-yl]carbamoyl]-4-fluoro-2-methylphenyl]-2-methyl-1,3-thiazole-5-carboxamide]		<1	> 1000	<1%
Cc1ncc(C(=O)Nc2cc(C(=O)Nc3ccc(C4CC4)cn3)c(F)cc2C)s1 [Example 3, N-[5-[(5-Cyclopropylpyridin-2-yl)carbamoyl]-4-fluoro-2-methylphenyl]-2-methyl-1,3-thiazole-5-carboxamide]		2	> 1000	<0.1%
Cc1ncc(C(=O)Nc2cc(C(=O)Nc3cnc(OCC(C)(F)F)cn3)c(F)cc2C)s1 [Example 4, N-[5-[[5-(2,2-Difluoropropoxy)pyrazin-2-yl]carbamoyl]-4-fluoro-2-methylphenyl]-2-methyl-1,3-thiazole-5-carboxamide]			> 1000	
Cc1ncc(C(=O)Nc2cc(C(=O)Nc3ccc(OC4CC4)cn3)c(F)cc2C)s1 [Example 2, N-[5-[(5-Cyclopropyloxypyridin-2-yl)carbamoyl]-4-fluoro-2-methylphenyl]-2-methyl-1,3-thiazole-5-carboxamide]			> 1000	
Cc1ncc(C(=O)Nc2cc(C(=O)Nc3ccc(CC(F)(F)F)cn3)c(F)cc2C)s1 [Example 1, N-[4-Fluoro-2-methyl-5-[[5-(2,2,2-trifluoroethyl)pyridin-2-yl]carbamoyl]phenyl]-2-methyl-1,3-thiazole-5-carboxamide]		4	> 1000	<0.1%^b

Now from value to molecule, other results behind:

IC50 ([2]; HTRF KinEASE-TK) [nM]	SMILES	Percent of total metabolism via bioactivation, Monkey hepatocytes [1] [%]	IC50 [2] [nM]	Percent of total metabolism via bioactivation, Human hepatocytes [3]
> 1000	Cc1ncc(C(=O)Nc2cc(C(=O)Nc3ccc(OC(F)F)cn3)c(F)cc2C)s1 [Example 38, N-[5-[[5-(difluoromethoxy)pyridin-2-yl]carbamoyl]-4-fluoro-2-methylphenyl]-2-methyl-1,3-thiazole-5-carboxamide]			
> 1000	Cc1ncc(C(=O)Nc2cc(C(=O)Nc3ccc(CC(F)(F)F)cn3)c(F)cc2Cl)s1 [Example 46, N-[2-chloro-4-fluoro-5-[[5-(2,2,2-trifluoroethyl)pyridin-2-yl]carbamoyl]phenyl]-2-methyl-1,3-thiazole-5-carboxamide]			
